Results from US9006487B2, “Amine-containing lipids and uses thereof” (Massachusetts Institute of Technology, priority 2005, dated 2015).
Several values for one entry are separate records, joined by “and”; a condition that tells them apart may be missing. Equal entries are not always repeated.

Test system: cos-7 cells
Experiment: DNA transfection: luciferase expression relative to Lipofectamine 2000
Format: cell-based
Conditions: for Luciferase expression as a percentage of that achieved using Lipofectamine 2000: 300 ng Luciferase DNA per well
Method in brief: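 Lipid/DNA complexes, 300 ng luciferase DNA per well at 2.5-25 w/w lipid:DNA, were formed in sodium acetate/Optimem and added to overnight-seeded cos-7 cells. Luciferase was measured by Bright-Glo luminescence after 48 hours and quantified against an enzyme standard curve. Values are expressed as % of Lipofectamine 2000 at 2.5 w/w.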

[1] = lipid/DNA 2.5 w/w, luciferase assay after 48 hours
[2] = lipid/DNA 5 w/w, luciferase assay after 48 hours
[3] = lipid/DNA 10 w/w, luciferase assay after 48 hours
[4] = lipid/DNA 15 w/w, luciferase assay after 48 hours
[5] = lipid/DNA 20 w/w, luciferase assay after 48 hours
[6] = lipid/DNA 25 w/w, luciferase assay after 48 hours
[7] = lipid/DNA 2.5 w/w, 72 hours incubation before bright-glo
[8] = lipid/DNA 5 w/w, 72 hours incubation before bright-glo
[9] = lipid/DNA 10 w/w, 72 hours incubation before bright-glo
[10] = lipid/DNA 15 w/w, 72 hours incubation before bright-glo
[11] = lipid/DNA 20 w/w, 72 hours incubation before bright-glo
[12] = lipid/DNA 25 w/w, 72 hours incubation before bright-glo

| SMILES | Luciferase expression as a percentage of that achieved using Lipofectamine 2000 [1] | Luciferase expression as a percentage of that achieved using Lipofectamine 2000 [2] | Luciferase expression as a percentage of that achieved using Lipofectamine 2000 [3] | Luciferase expression as a percentage of that achieved using Lipofectamine 2000 [4] | Luciferase expression as a percentage of that achieved using Lipofectamine 2000 [5] | Luciferase expression as a percentage of that achieved using Lipofectamine 2000 [6] | Luciferase expression as a percentage of that achieved using Lipofectamine 2000 [7] | luciferase expression (second part of table, values relative to LIPO2000) [7] | Luciferase expression as a percentage of that achieved using Lipofectamine 2000 [8] | luciferase expression (second part of table, values relative to LIPO2000) [8] | Luciferase expression as a percentage of that achieved using Lipofectamine 2000 [9] | luciferase expression (second part of table, values relative to LIPO2000) [9] | Luciferase expression as a percentage of that achieved using Lipofectamine 2000 [10] | luciferase expression (second part of table, values relative to LIPO2000) [10] | Luciferase expression as a percentage of that achieved using Lipofectamine 2000 [11] | luciferase expression (second part of table, values relative to LIPO2000) [11] | Luciferase expression as a percentage of that achieved using Lipofectamine 2000 [12] | luciferase expression (second part of table, values relative to LIPO2000) [12] |
| --- | --- | --- | --- | --- | --- | --- | --- | --- | --- | --- | --- | --- | --- | --- | --- | --- | --- | --- |
| CCCCCCCCCCCCCCCOC(=O)CCN(CCC(=O)OCCCCCCCCCCCCCCC)CCN1CCOCC1 [LG90] | 0.1% and 0.6% | 0.1% and 0.6% | 0.0% and 0.4% | 0.0% and 0.4% | 0.1% and 0.4% | 0.0% and 0.4% | – | – | – | – | – | – | – | – | – | – | – | – |
| CCCCCCCCCCCCCCCOC(=O)CCN(CCCN1CCOCC1)CCC(=O)OCCCCCCCCCCCCCCC [LG91] | 0.2% | 0.2% | 0.1% | 0.2% | 0.1% | 0.1% | – | – | – | – | – | – | – | – | – | – | – | – |
| CCCCCCCCCCCCCCCOC(=O)CCN(CCCn1ccnc1)CCC(=O)OCCCCCCCCCCCCCCC [LG93] | 3.6% | 9.2% | 19.8% | 37.3% | 24.0% | 24.6% | 45.0% | 45.0 | 43.8% | 43.8 | 310.5% | 310.5 | 281.8% | 281.8 | 185.9% | 185.9 | 183.8% | 183.8 |
| CCCCCCCCCCCCCCCCCCOC(=O)CCN(CCCOC)CCC(=O)OCCCCCCCCCCCCCCCCCC [LH1] | 0.0% | 0.0% | 0.0% | 0.0% | 0.0% | 0.0% | – | – | – | – | – | – | – | – | – | – | – | – |
| CCCCCCCCCCCCCCCCCCOC(=O)CCN(CCC(=O)OCCCCCCCCCCCCCCCCCC)CCC1OCCO1 [LH6] | 0.0% | 0.0% | 0.0% | 0.0% | 0.0% | 0.0% | – | – | – | – | – | – | – | – | – | – | – | – |
| CCCCCCCCCCCCCCCCCCOC(=O)CCN(CCC(=O)OCCCCCCCCCCCCCCCCCC)CC1COC(C)(C)O1 (centres unmarked) [LH7] | 0.0% | 0.0% | 0.0% | 0.0% | 0.0% | 0.0% | – | – | – | – | – | – | – | – | – | – | – | – |
| CCCCCCCCCCCCCCCCCCOC(=O)CCN(CCOC)CCC(=O)OCCCCCCCCCCCCCCCCCC [LH10] | 0.0% | 0.0% | 0.0% | 0.0% | 0.0% | 0.0% | – | – | – | – | – | – | – | – | – | – | – | – |
| CCCCCCCCCCCCCCCCCCOC(=O)CCN(CCOCC)CCC(=O)OCCCCCCCCCCCCCCCCCC [LH11] | 0.0% | 0.0% | 0.0% | 0.0% | 0.0% | 0.0% | – | – | – | – | – | – | – | – | – | – | – | – |
| CCCCCCCCCCCCCCCCCCOC(=O)CCN(CCC(=O)OCCCCCCCCCCCCCCCCCC)CC(OC)OC [LH13] | 0.0% | 0.0% | 0.0% | 0.0% | 0.0% | 0.0% | – | – | – | – | – | – | – | – | – | – | – | – |
| CCCCCCCCCCCCCCCCCCOC(=O)CCN(CCC(=O)OCCCCCCCCCCCCCCCCCC)CC1CCCO1 (centres unmarked) [LH15] | 0.0% | 0.0% | 0.0% | 0.0% | 0.0% | 0.0% | – | – | – | – | – | – | – | – | – | – | – | – |
| CCCCCCCCCCCCCCCCCCOC(=O)CCN(CCC(=O)OCCCCCCCCCCCCCCCCCC)CCc1ccc(OC)c(OC)c1 [LH17] | 0.0% | 0.0% | 0.0% | 0.0% | 0.0% | 0.0% | – | – | – | – | – | – | – | – | – | – | – | – |
| CCCCCCCCCCCCCCCCCCOC(=O)CCN(CCCO)CCC(=O)OCCCCCCCCCCCCCCCCCC [LH20] | 0.0% | 0.0% | 0.0% | 0.0% | 0.0% | 0.0% | – | – | – | – | – | – | – | – | – | – | – | – |
| CCCCCCCCCCCCCCCCCCOC(=O)CCN(CCC(=O)OCCCCCCCCCCCCCCCCCC)C[C@@H](C)O [LH21] | 0.0% | 0.0% | 0.0% | 0.0% | 0.0% | 0.0% | – | – | – | – | – | – | – | – | – | – | – | – |
| CCCCCCCCCCCCCCCCCCOC(=O)CCN(CCC(=O)OCCCCCCCCCCCCCCCCCC)C[C@H](C)O [LH22] | 0.0% | 0.0% | 0.0% | 0.0% | 0.0% | 0.0% | – | – | – | – | – | – | – | – | – | – | – | – |
| CCCCCCCCCCCCCCCCCCOC(=O)CCN(CCCCO)CCC(=O)OCCCCCCCCCCCCCCCCCC [LH28] | – | – | 0.2% | 0.2% | – | – | – | – | – | – | – | – | – | – | – | – | – | – |
